Measured values reported in article PMC12775124, “CUL4A-DDB1-DCAF10 is an N-recognin for N-terminally acetylated Src kinases” (Nature Communications, 2026).

Key:
GST-DCAF10 = assay: Streptavidin pull-down of GST-DCAF10 with biotinylated Nt-peptides; type: binding, human; details: for Binding to GST-DCAF10 (in words) / Nt-free reduction compared to Nt-Ac: 0.5 µM GST-DCAF10, 5 µM peptide, 1 h RT, WB; for Nt-free reduction compared to Nt-Ac: mean ± s.d., n = 3 independent binding assays
Procedure: To confirm direct interactions between peptides and DCAF10, we performed pull-down assays using bead-bound Nt-peptide variants incubated with purified full-length GST-DCAF10 or GST as a negative control (Fig. 2m–p and Supplementary Fig. 4a).
230 of 1:100), and desalted/concentrated on C18 reversed phase stage tips as previously
MS measurements settings are stated in MS measurements and raw file
BL21(DE3) cells (Thermo Fisher Scientific,
240 agar) plate containing 100 μg/mL ampicillin and 34 μg/mL chloramphenicol, then
Terrific broth (TB) medium (24 g/L yeast extract,
243 20 g/L tryptone, glycerol 4 mL/L, 100 mL/L phosphate buffer containing 0.17 M KH2PO4
244 and 0.72 M K2HPO4) was used to prepare a 1:100 dilution of the starter culture, and OD600
At OD600 = 1, protein induction was initiated by adding 1 mM
247 day, pellets were homogenized and lysed in glycerol lysis buffer (20 mM Tris-HCl pH
Lysis was performed on ice for 30 min, followed by
250 sonication (7 × 20 sec pulses with 20 sec breaks on ice) using a Bandelin sonoplus
Lysates were centrifuged at 4°C for 1 h
253 medium culture was lysed in 20 mL of supernatant (collected in 20 × 1 mL tubes). GST
255 agarose bead; Thermo Fisher Scientific, Waltham, MA, USA). For each 1 mL of
100 μL of GST magnetic beads
257 were washed twice with 500 μL of wash buffer (125 mM Tris-HCl pH 7.4, 150 mM NaCl,
The lysis supernatant was diluted 1:1 with
259 wash buffer, and incubated with the beads on an end-over-end rotator for 1 h at 25°C.
260 After incubation, the supernatant was removed, and the beads were washed twice with
Protein elution was then performed by incubating
263 pH 7.4, 250 mM NaCl, 0.3% Triton X-100) for 30 min at 25°C on an end-over-end rotator.
265 under the same conditions. Elution fractions were pooled and concentrated by
266 centrifugation (4°C, 25 min, 4500 rpm) using a 30 kDa cut-off concentrator (Merck
267 Millipore, #UFC803008, Darmstadt, Germany). Purified proteins were analyzed by
268 colloidal Coomassie stain, WB and MS.
270 Streptavidin pull-downs with GST-DCAF10 and biotinylated peptides
271 Streptavidin magnetic beads (DynabeadsTM MyOneTM Streptavidin T1; Thermo Fisher
272 Scientific, Waltham, MA, USA) were washed twice with 500 μL of wash buffer (125 mM
273 Tris-HCl pH 7.4, 150 mM NaCl, 0.1% Triton X-100). An excess of peptides was added
274 (to ensure full occupancy of the beads) and incubated for 30 min at RT. After peptide
275 binding, beads were again washed three times with 500 μL of wash buffer. The pull-down
276 was then performed in a 100 μL reaction volume with final concentrations of 0.5 µM
277 GST-DCAF10 and 5 µM peptide. GST-DCAF10 or GST alone (as a control) was added
278 to the peptide-streptavidin beads and incubated on a rotator for 1 h at RT. After incubation,
279 the beads were washed three times with 500 μL of wash buffer and resuspended in 4x
280 Laemmli buffer. 1/5 of the input (GST-DCAF10 and GST) and 9/10 of the sample were
281 loaded on a 10% SDS gel and blotted with anti-GST and anti-DCAF10 antibodies, while
282 1/10 was loaded on a 15% SDS gel and blotted with anti-streptavidin antibody to assess
283 equal peptide loading.
285 Streptavidin Sepharose High Performance, GE Healthcare, Chicago, IL, USA) were used.
286 After washing with a high salt wash buffer without detergents (125 mM Tris-HCl pH 7.4,
287 400 mM NaCl), an excess of peptides was added and incubated for 30 min at RT. For each
288 reaction, 10 µL of slurry beads were used. After peptide-binding, beads were again
289 washed once with a high salt wash buffer without detergents and twice with binding buffer
290 without detergents (125 mM Tris-HCl pH 7.4, 150 mM NaCl). The pull-downs were
291 performed in a 100 μL reaction volume in binding buffer without detergents with a final
292 concentration of 0.5 µM GST-DCAF10 and incubated rotating for 1 h at RT. After
293 incubation, the beads were washed five times with 500 μL of high salt wash buffer without […]

[1] = test system: DLD-1 Lyn KO Flp-In T-REx cells; assay: Direct ubiquitin blot of Lyn-GFP immunoprecipitates; type: cell-based, human; details: anti-GFP IP, anti-Ub blot, n = 3
Procedure: Fig. 6 N-terminal glycine mutation abolishes DCAF10-dependent stability and ubiquitination. a DLD-1 Flp-In T-REx cells and Lyn KO cells expressing Lyn^WT-GFP, Lyn^G2A-GFP, or Lyn^G2P-GFP were induced for 24 h with 100 ng/mL doxycycline. Cells were treated with NMT1/2 siRNA, DCAF10 siRNA, or both (or left untreated) for 72 h. Representative WBs are shown. Filled circles represent siRNA treatment, empty circles untreated. b WB quantifications of Lyn levels normalized to vinculin. Purple: untreated with NMT1/2 siRNA; blue: treated with NMT1/2 siRNA. Mean ± s.d. with individual data points are shown (n = 3 independent biological replicates). c Schematic of ubiquitination experiments. Created in BioRender. […] Lysates have been treated with NMT1/2 RNAi for 72 h. i Quantification of in vitro ubiquitination assays. Mean ± s.d. with individual data points are shown (n = 3 independent ubiquitination assays). Volcano plots of Lyn-GFP^WT binding partners: j NMT1/2 siRNA ± doxycycline (Dox); k Control ± doxycycline; l NMT1/2 siRNA vs. control both with doxycycline. The −log10 adjusted p-value (two-sided Student’s t test with permutation-based multiple-testing correction; y-axis) is plotted against the log2 fold change (x-axis). […]
We next assessed the role of the Lyn Nt-residue for ubiquitination by performing two complementary experimental set-ups (Fig. 6c). […]

DCAF10 [2] = assay: Peptide pull-down with quantitative MS, HeLa lysate, DCAF10; type: binding, human (HeLa); details: HeLa lysate; for DCAF10 binding (in words): Nt-Ac vs Nt-free peptides
DCAF10 [3] = assay: Peptide pull-down with quantitative MS, mouse liver lysate, DCAF10; type: binding
Procedure: Biotinylated 10-mer Nt-peptides (Nt-free, Nt-acetylated, and, where indicated, Nt-myristoylated; sequences in Supplementary Table 1) were synthesized with a C-terminal Lys3 spacer and biotin, immobilized on magnetic streptavidin beads, and incubated with HeLa or mouse liver lysates. After standardized washes, bound proteins were on-bead reduced/alkylated, digested with LysC/trypsin, desalted, and analysed by LC-MS in DIA mode (Orbitrap Exploris 480) as described previously[24]. Variants included endogenous Nt-sequences, swap and mutant (Ala-Ala-Ala or Nt-amino acids) peptides, and pairwise comparisons of conditions of interest.
Briefly, magnetic streptavidin beads (DynabeadsTM
Beads were then washed three times with PBS.
210 washing, 1 mg of HeLa lysates or 2 mg of liver lysates was taken, and lysis buffer (75
Lysates were incubated with streptavidin
HeLa pull-downs were washed twice with lysis buffer and twice
Liver pulldowns were washed twice with cold low salt buffer (50 mM
220 individually ventilated cages under a 12-h light/dark cycle and were provided with sterile
No animal procedures were performed specifically for this
526 Mass spectrometry measurements and raw file processing
527 Samples (peptide pull-downs, IPs and high-pH fractionations) were separated on an […]

“GCIKSKGKDSKK [Nt-free Lyn, Nt-peptide of Lyn (aa 1–10 + KKK-biotin), Nt-free]” was tested, and the “Binding to GST-DCAF10 (in words)” value (GST-DCAF10; listed as Lyn Nt-free) was “bound only weakly” and the “Nt-free reduction compared to Nt-Ac” value (GST-DCAF10) was 88.5 ± 14.7%.
In the case of “GCVQCKDKEAKK [Nt-free Fyn, Nt-peptide of Fyn, Nt-free]”, the “Binding to GST-DCAF10 (in words)” value (GST-DCAF10) is reported as “bound only weakly” and the “Nt-free reduction compared to Nt-Ac” value (GST-DCAF10) is reported as 82.5 ± 10.8%.
With “Lyn^WT-GFP: doxycycline-inducible C-terminally GFP-fused Lyn in DLD-1 Lyn KO cells” the “Ubiquitination in cells (in words)” value [1] was “ubiquitinated under both conditions, with a stronger signal in controls”.
In the case of “GSNKSKPKDAKK [Ac-Src, Nt-peptide of Src, Nt-acetylated]”, the “Lower binding in pull-downs” value (GST-DCAF10; compared with Lyn and Fyn) is reported as ~ 30%, the “DCAF10 binding in initial pull-downs, log2” value (DCAF10 [2]; Ac-Src vs Nt-free Src) is reported as about 5 log2 and the “DCAF10 binding (in words)” value (DCAF10 [2]) is reported as “bound to DCAF10”. The “DCAF10 binding, Nt-Ac vs Nt-Myr (in words)” value (DCAF10 [2]; listed as Nt-acetylated Src) was “DCAF10 selectively recognizes the acetylated form”.
For “GCIKSKGKDSKK [Ac-Lyn, Nt-peptide of Lyn (aa 1–10 + KKK-biotin), Nt-acetylated]”, the “DCAF10 binding (in words)” value (DCAF10 [3]) was “confirmed DCAF10 binding”, the “Binding to GST-DCAF10 (in words)” value (GST-DCAF10; listed as Nt-acetylated Lyn) was “bound robustly to GST-DCAF10” and the “DCAF10 binding, Nt-Ac vs Nt-Myr (in words)” value (DCAF10 [2]) was “DCAF10 selectively recognizes the acetylated form”. For the same substance, the “DCAF10 binding (in words)” value (DCAF10 [2]) was “bound to DCAF10” and the “log₂ difference Ac-Lyn vs Ac-THOC7, DCAF10” value (DCAF10 [2]; n = 3) was 5.83.
